Assay [1] has as its system Serratia marcescens 1421-4. Kind of assay: MIC and FIC, Nutrient agar (Tests 2, 3). Format: cell-based. Conditions: Serratia marcescens, 14214, 20 h.
The test system of assay [2] is Salmonella paratyphi A-1015. Kind of assay: MIC and FIC, Nutrient agar (Test 2). Format: cell-based. Conditions: Salmonella enterica; S. paratyphi A-1015; 20 h.
Procedure: (§1) After the incubation was carried out at 37° C. for 20 hours, MIC values were determined.
(§2) FIC values and FIC Index were calculated in substantially the same manner as described in Test 1.
The subject of assay [3] is Enterobacter aerogenes 25. In words: microbe, parasite or virus in culture. To be noted: Klebsiella aerogenes, 25, 18 h.
The test system of assay [4] is Serratia marcescens 4. Kind of assay: MIC and FIC, Nutrient agar (Test 9). Format: cell-based. To be noted: S. marcescens 4, 18 h.
Procedure: as §2
Assay [5] concerns Pseudomonas aeruginosa No.14. In words: MIC and FIC, Nutrient agar, multiple inoculator (Test 4). It is filed as cell-based. To be noted: P. aeruginosa No.14, 10^8 cells/ml, 20 h.
Procedure: as §1, §2
Assay [6] has as its system Proteus vulgaris IAM-1025. In words: MIC and FIC, Nutrient agar (Test 2). To be noted: IAM1025, P. vulgaris IAM-1025, 20 h. Format: cell-based.
Procedure: as §1, §2
Assay [7] concerns Pseudomonas aeruginosa 77. In words: MIC and FIC, Nutrient agar (Test 7). Conditions: P. aeruginosa 77, 18 h. Format: cell-based.
Procedure: as §2
In assay [8] the test system is Pseudomonas aeruginosa 42. Kind of assay: MIC and FIC, Nutrient agar (Test 7). To be noted: Pseudomonas aeruginosa; P. aeruginosa 42; 18 h; read-out: MIC. It is filed as cell-based.
Procedure: as §2
Assay [9] deals with Klebsiella pneumoniae NCTC 418. Kind of assay: MIC and FIC, Nutrient agar (Tests 2, 3). Format: cell-based. To be noted: NCTC418, K. pneumoniae NCTC 418, 20 h.
Procedure: as §1
The subject of assay [10] is Pseudomonas aeruginosa No.9. In words: MIC and FIC, Nutrient agar, multiple inoculator (Test 4). Format: cell-based. Conditions: P. aeruginosa No.9, 10^8 cells/ml, 20 h.
Procedure: as §1, §2
The test system of assay [11] is Staphylococcus aureus 3. Kind of assay: MIC and FIC, Nutrient agar (Tests 6, 7). Conditions: Staphylococcus aureus; S. aureus 3; 18 h; read-out: MIC. Format: cell-based.
Procedure: as §2
The subject of assay [12] is Proteus mirabilis 1432-75. In words: MIC and FIC, Nutrient agar (Tests 2, 3). To be noted: Proteus mirabilis, 143275, 20 h. Format: cell-based.

Values after ≈ are worked out from the molar mass of the structure shown.

Take `O=CN(O)CCCP(=O)(O)O` [A (Table 2)]: the MIC in assay [1] was determined as 50 µg/mL; in assay [2] it was 6.25 µg/mL; in assay [3] it was 100 µg/mL (≈ 546 µM); in assay [4], 50 µg/mL; in assay [5], 400 µg/mL; in assay [6], 1.56 µg/mL. In addition, the MIC was 6.25 µg/mL in assay [7]; 50 µg/mL in [8]; 25 µg/mL in [9]; more than 800 µg/mL in assay [10]; 400 µg/mL in assay [11]; 1.56 µg/mL in [12].

The values above are taken from patent US4330529A, “Antibacterial composition” (Fujisawa Pharmaceutical Co., Ltd., priority 1979, dated 1982).
